Experiment [1] has as its system Septoria tritici (ATCC 26517). Nature of the experiment: Minimum Inhibitory Concentration (MIC) (Septoria tritici), CLSI-based microdilution. Format: cell-based. The conditions noted are these: Zymoseptoria tritici, ATCC26517, 168 h, S. tritici ATCC 26517; 22° C. for seven days; 50% reduction in growth; read-out: Septoria Rating (MIC). A digest of the protocol: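 S. tritici (ATCC 26517) tested by CLSI-style broth microdilution for filamentous fungi in RPMI-1640/MOPS, 2-fold series 16–0.016 μg/mL (11 concentrations, 2% DMSO before inoculum), duplicate rows. Inoculum ~5×10^4 cfu/mL; plates incubated 7 days at 22 °C in the dark, static; growth scored on a rating scale.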

Experiment [2] deals with C. albicans. Nature of the experiment: Minimum Inhibitory Concentration (MIC) (C. albicans), CLSI M27-A2. The class given is cell-based. The conditions noted are these: Candida albicans; approximately 48 h at 35±1° C.; about 50% growth reduction. How it is done: A. Minimum Inhibitory Concentration (MIC) (C. albicans) Compounds of the present disclosure were assessed for their ability to inhibit the growth of common strains of fungus, C. albicans using a standardized procedure (CLSI M27-A2). Stock solutions of the test compounds and standards were prepared in DMSO at 1,600 μg/mL (C. albicans). Eleven, serial, one-half dilutions of compounds were prepared in 96-well plates in RPMI+MOPS. The assay concentration ranges were 8-0.001 μg/mL (C. albicans). Cell suspensions of C. albicans were prepared and added to each well at concentrations of approximately 3.7×10^3 colony-forming-units per milliliter (cfu/mL). All testing was in duplicate. The inoculated plates were incubated for approximately 48 h at 35±1° C. At the completion of incubation the wells of each plate were evaluated visually for the presence of fungal growth. […] For QC purposes C. krusei isolate ATCC 6258 (4.0×10^3 cfu/mL) was included in the VOR assay.

Experiment [3] has as its system Puccinia recondita tritici = Puccinia triticina. Nature of the experiment: Fungicidal activity vs. leaf rust on wheat plants. The conditions noted are these: wheat (variety Yuma) sprayed at 50 ppm, inoculated on the following day, evaluated 7-9 days later; read-out: Puccinia Rating (% Disease Control @ 50 ppm). Format: in vivo. The text has this: D. Evaluation of Fungicidal Activity Vs. Leaf Rust (Causal Agent Puccinia recondita tritici=Puccinia triticina; Bayer Code PUCCRT). […] Each pot contained 3-8 seedlings. These plants were sprayed until wet with the formulated test compounds. The compounds were formulated at 50 ppm in 10 vol. % acetone plus 90 vol. % Triton X water (deionized water 99.99 wt %+0.01 wt % Triton X100), giving a “formulated test compound.” Formulated test compounds were applied to plants using a turn table sprayer fitted with two opposing air atomization nozzles which delivered approximately 1500 L/ha of spray volume. On the following day, the leaves were inoculated with an aqueous spore suspension of Puccinia recondita tritici and the plants were kept in high humidity overnight to permit spores to germinate and infect the leaf. The plants were then transferred to a greenhouse until disease developed on untreated control plants. Disease severity was evaluated 7-9 days later, depending on the speed of disease development. In each case of Table 3, the Puccinia rating scale is as follows: […]

In brackets after ≈: the same amount, converted by molar mass.

For the compound `CCOC(=O)/C=C/c1ccc(C(F)(F)C(O)(Cn2cnnn2)c2ccc(F)cc2F)nc1` (centres unmarked) [Compound 4, (E)-Ethyl 3-(6-(2-(2,4-difluorophenyl)-1,1-difluoro-2-hydroxy-3-(1H-tetrazol-1-yl)propyl)pyridin-3-yl)acrylate], the MIC in experiment [1] was no more than 0.5 µg/mL; in experiment [2], no more than 0.016 µg/mL.

Regarding `OC(Cn1cnnn1)(c1ccc(F)cc1F)C(F)(F)c1ccc(/C=C/COCC(F)(F)F)cn1` (centres unmarked) [Compound 6, (E)-2-(2,4-Difluorophenyl)-1,1-difluoro-3-(1H-tetrazol-1-yl)-1-(5-(3-(2,2,2-trifluoroethoxy)prop-1-en-1-yl)pyridin-2-yl)propan-2-ol], the figures for the MIC in experiment [1] and in experiment [2] were no more than 0.5 µg/mL and no more than 0.016 µg/mL, respectively. Further, the pest or weed control at 50 ppm in experiment [3] was less than 40%.

As for `OC(Cn1cnnn1)(c1ccc(F)cc1F)C(F)(F)c1ccc(-c2ccc(Cl)nc2)cn1` (centres unmarked) [Compound 30, 1-(6′-Chloro-[3,3′-bipyridin]-6-yl)-2-(2,4-difluorophenyl)-1,1-difluoro-3-(1H-tetrazol-1-yl)propan-2-ol], the pest or weed control at 50 ppm in experiment [3] lay within 80 to 100%. Also, the MIC in experiment [2] stood at 0.062 µg/mL (≈ 0.133 µM).

Take `OC(Cn1cnnn1)(c1ccc(F)cc1F)C(F)(F)c1ccc(Cc2ccc(C(F)(F)F)cc2)cn1` (centres unmarked) [Compound 73, 2-(2,4-Difluorophenyl)-1,1-difluoro-3-(1H-tetrazol-1-yl)-1-(5-(4-(trifluoromethyl)benzyl)pyridin-2-yl)propan-2-ol]: the MIC in experiment [1] was no more than 0.5 µg/mL. Besides, the pest or weed control at 50 ppm in experiment [3] lay within 80 to 100%.

`OC(Cn1cnnn1)(c1ccc(F)cc1F)C(F)(F)c1ccc(Cc2ccccc2)cn1` (centres unmarked) [Compound 75, 1-(5-Benzylpyridin-2-yl)-2-(2,4-difluorophenyl)-1,1-difluoro-3-(1H-tetrazol-1-yl)propan-2-ol]: the MIC in experiment [1] is no more than 0.5 µg/mL. Moreover, the pest or weed control at 50 ppm in experiment [3] was in the range of 80 to 100%.

Take `OC(Cn1cnnn1)(c1ccc(F)cc1F)C(F)(F)c1ccc(Cc2ccc(OC(F)(F)F)cc2)cn1` (centres unmarked) [Compound 76, 2-(2,4-Difluorophenyl)-1,1-difluoro-3-(1H-tetrazol-1-yl)-1-(5-(4-(trifluoromethoxy)benzyl)pyridin-2-yl)propan-2-ol]: the MIC in experiment [1] was no more than 0.5 µg/mL. Besides, in experiment [3], the pest or weed control at 50 ppm lay in the range of 80 to 100%.

In the case of `OC(Cn1cnnn1)(c1ccc(F)cc1F)C(F)(F)c1ccc(Cc2ccc(Cl)cc2)cn1` (centres unmarked) [Compound 77, 1-(5-(4-Chlorobenzyl)pyridin-2-yl)-2-(2,4-difluorophenyl)-1,1-difluoro-3-(1H-tetrazol-1-yl)propan-2-ol], the MIC in experiment [1] is no more than 0.5 µg/mL. In addition, the pest or weed control at 50 ppm in experiment [3] is 80 to 100%.

For the compound `N#Cc1ccc(OCc2ccc(C(F)(F)C(O)(Cn3cnnn3)c3ccc(F)cc3F)nc2)cc1` (centres unmarked) [Compound 79, 4-((6-(2-(2,4-Difluorophenyl)-1,1-difluoro-2-hydroxy-3-(1H-tetrazol-1-yl)propyl)pyridin-3-yl)methoxy)benzonitrile], in experiment [1], the MIC was no more than 0.5 µg/mL. In addition, the pest or weed control at 50 ppm in experiment [3] is 80 to 100%.

Turning to `OC(Cc1cnco1)(c1ccc(F)cc1F)C(F)(F)c1ccc(Br)cn1` (centres unmarked) [Compound 83, 1-(5-Bromopyridin-2-yl)-2-(2,4-difluorophenyl)-1,1-difluoro-3-(oxazol-5-yl)propan-2-ol], the MIC in experiment [1] is no more than 0.5 µg/mL. Moreover, the pest or weed control at 50 ppm in experiment [3] lay in the range of 80 to 100%.

`N#Cc1ccc(OCc2ccc(C(F)(F)C(O)(Cn3cnnn3)c3ccc(F)cc3F)nc2)c(F)c1` (centres unmarked) [Compound 88, 4-((6-(2-(2,4-difluorophenyl)-1,1-difluoro-2-hydroxy-3-(1H-tetrazol-1-yl)propyl)pyridin-3-yl)methoxy)-3-fluorobenzonitrile]: in experiment [1], the MIC is no more than 0.5 µg/mL. The pest or weed control at 50 ppm in experiment [3] is 80 to 100%.

Take `N#Cc1cccc(OCc2ccc(C(F)(F)C(O)(Cn3cnnn3)c3ccc(F)cc3F)nc2)c1F` (centres unmarked) [Compound 89, 3-((6-(2-(2,4-difluorophenyl)-1,1-difluoro-2-hydroxy-3-(1H-tetrazol-1-yl)propyl)pyridin-3-yl)methoxy)-2-fluorobenzonitrile]: the MIC in experiment [1] was no more than 0.5 µg/mL. In experiment [3], the pest or weed control at 50 ppm is 80 to 100%.

For `N#Cc1ccc(SCc2ccc(C(F)(F)C(O)(Cn3cnnn3)c3ccc(F)cc3F)nc2)c(F)c1` (centres unmarked) [Compound 90, 4-(((6-(2-(2,4-difluorophenyl)-1,1-difluoro-2-hydroxy-3-(1H-tetrazol-1-yl)propyl)pyridin-3-yl)methyl)thio)-3-fluorobenzonitrile], the MIC in experiment [1] stood at 1.5 µg/mL (≈ 2.89 µM). In addition, the pest or weed control at 50 ppm in experiment [3] lay within 40 to 59%.

On to `OC(Cn1cnnn1)(c1ccc(F)cc1F)C(F)(F)c1ccc(COC(F)F)cn1` (centres unmarked) [Compound 92, 1-(5-((difluoromethoxy)methyl)pyridin-2-yl)-2-(2,4-difluorophenyl)-1,1-difluoro-3-(1H-tetrazol-1-yl)propan-2-ol], for which, in experiment [1], the MIC is no more than 0.5 µg/mL. Moreover, the pest or weed control at 50 ppm in experiment [3] fell in the range of 80 to 100%.

As to `OC(Cn1cnnn1)(c1ccc(F)cc1F)C(F)(F)c1ccc(-c2ccc(Cl)cn2)cn1` (centres unmarked) [Compound 93, 1-(5-chloro-[2,3′-bipyridin]-6′-yl)-2-(2,4-difluorophenyl)-1,1-difluoro-3-(1H-tetrazol-1-yl)propan-2-ol], the MIC in experiment [1] was no more than 0.5 µg/mL. Also, the pest or weed control at 50 ppm in experiment [3] lay in the range of 80 to 100%.

Regarding `OC(Cn1cnnn1)(c1ccc(F)cc1F)C(F)(F)c1ccc(-c2ccc(C(F)(F)F)cn2)cn1` (centres unmarked) [Compound 94, 2-(2,4-difluorophenyl)-1,1-difluoro-3-(1H-tetrazol-1-yl)-1-(5-(trifluoromethyl)-[2,3′-bipyridin]-6′-yl)propan-2-ol], in experiment [1], the MIC was no more than 0.5 µg/mL. The pest or weed control at 50 ppm in experiment [3] was in the range of 80 to 100%.

Consider `N#Cc1ccc(-c2ccc(C(F)(F)C(O)(Cn3cnnn3)c3ccc(F)cc3F)nc2)nc1` (centres unmarked) [Compound 95, 6′-(2-(2,4-difluorophenyl)-1,1-difluoro-2-hydroxy-3-(1H-tetrazol-1-yl)propyl)-[2,3′-bipyridine]-5-carbonitrile], for which, in experiment [1], the MIC lay in the range of 1.5 to 4 µg/mL (≈ 3.29 to 8.78 µM). The pest or weed control at 50 ppm in experiment [3] was 80 to 100%.

Turning to `OC(Cn1cnnn1)(c1ccc(F)cc1F)C(F)(F)c1ccc(-c2ccncc2)cn1` (centres unmarked) [Compound 96, 1-([3,4′-bipyridin]-6-yl)-2-(2,4-difluorophenyl)-1,1-difluoro-3-(1H-tetrazol-1-yl)propan-2-ol], the MIC in experiment [1] was in the range of 1.5 to 4 µg/mL (≈ 3.49 to 9.29 µM). The pest or weed control at 50 ppm in experiment [3] lay in the range of 60 to 79%.

As for `N#Cc1ccc(OCc2ccc(C(F)(F)C(O)(Cn3cnnn3)c3ccc(F)cc3F)nc2)nc1` (centres unmarked) [Compound 98, 6-((6-(2-(2,4-difluorophenyl)-1,1-difluoro-2-hydroxy-3-(1H-tetrazol-1-yl)propyl)pyridin-3-yl)methoxy)nicotinonitrile], in experiment [1], the MIC was no more than 0.5 µg/mL. In experiment [3], the pest or weed control at 50 ppm was 80 to 100%.

As to `OC(Cn1cnnn1)(c1ccc(F)cc1F)C(F)(F)c1ccc(COc2ccc(C(F)(F)F)cn2)cn1` (centres unmarked) [Compound 99, 2-(2,4-difluorophenyl)-1,1-difluoro-3-(1H-tetrazol-1-yl)-1-(5-(((5-(trifluoromethyl)pyridin-2-yl)oxy)methyl)pyridin-2-yl)propan-2-ol], in experiment [1], the MIC is no more than 0.5 µg/mL. The pest or weed control at 50 ppm in experiment [3] was 80 to 100%.

As to `OC(Cn1cnnn1)(c1ccc(F)cc1F)C(F)(F)c1ccc(COc2ncc(C(F)(F)F)cc2Cl)cn1` (centres unmarked) [Compound 100], the MIC in experiment [1] is no more than 0.5 µg/mL. Also, the pest or weed control at 50 ppm in experiment [3] fell in the range of 80 to 100%.

For the compound `OC(Cn1cnnn1)(c1ccc(F)cc1F)C(F)(F)c1ccc(C(F)(F)c2ccc(F)cc2)cn1` (centres unmarked) [Compound 101, 1-(5-(difluoro(4-fluorophenyl)methyl)pyridin-2-yl)-2-(2,4-difluorophenyl)-1,1-difluoro-3-(1H-tetrazol-1-yl)propan-2-ol], in experiment [1], the MIC fell in the range of 1.5 to 4 µg/mL (≈ 3.02 to 8.04 µM). Besides, the pest or weed control at 50 ppm in experiment [3] lay in the range of 80 to 100%.

As for `OC(Cn1cnnn1)(c1ccc(F)cc1F)C(F)(F)c1ccc(C(F)(F)c2ccc(C(F)(F)F)cc2)cn1` (centres unmarked) [Compound 102, 1-(5-(difluoro(4-(trifluoromethyl)phenyl)methyl)pyridin-2-yl)-2-(2,4-difluorophenyl)-1,1-difluoro-3-(1H-tetrazol-1-yl)propan-2-ol], the MIC in experiment [1] fell in the range of 1.5 to 4 µg/mL (≈ 2.74 to 7.31 µM). In addition, in experiment [3], the pest or weed control at 50 ppm is 80 to 100%.

`N#Cc1ccc(C(F)(F)c2ccc(C(F)(F)C(O)(Cn3cnnn3)c3ccc(F)cc3F)nc2)cc1` (centres unmarked) [Compound 103, 4-((6-(2-(2,4-difluorophenyl)-1,1-difluoro-2-hydroxy-3-(1H-tetrazol-1-yl)propyl)pyridin-3-yl)difluoromethyl)benzonitrile]: the MIC in experiment [1] lay within 1.5 to 4 µg/mL (≈ 2.97 to 7.93 µM). The pest or weed control at 50 ppm in experiment [3] is 80 to 100%.

Source of the values: patent US9221791B2, “Metalloenzyme inhibitor compounds” (Viamet Pharmaceuticals, Inc., priority 2011, dated 2015).
